Read-outs that look alike come from different tables or passages of the source.
Assays:
[1] = tested on: planktonic MRSA; assay: Time-killing test on planktonic MRSA in stationary phase; assay type: cell-based, Methicillin-resistant S. aureus (MRSA) USA300; conditions: 5 mg mL^−1 DAP, within 24 hours
Description: MRSA bacteria was cultured in LB media in a 37° C. water shaking bath overnight to reach the concentration of 1×10^8 CFU mL^−1. Then, they were diluted to 10^5 CFU mL^−1 in 96-well plates by adding different concentrations of VAN solutions. After incubation for 24 hours without shaking, MIC of VAN to inhibit MRSA growth was measured by a Biotek Synergy H1 hybrid multi-mode microplate reader (BioTek, Winooski, Vt., USA) at OD600. To evaluate the killing time of VAN to bacteria in stationary phase (1×10^8 CFU mL^−1), VAN powder was added to bacteria solution to obtain concentration of 1 mg mL^−1, 3 mg mL^−1, 5 mg mL^−1, and 10 mg mL^−1, respectively, while remaining MRSA concentration of 1×10^8 CFU mL^−1. After incubation in a 37° C. water bath for 1 day, 2 days, 3 days and 4 days, the CFU of MRSA cells was tested by the standard plate spread counting assay, respectively. The time-killing tests of DAP with different concentrations (0.1 mg mL^−1, 0.5 mg mL^−1, 1 mg mL^−1, and 5 mg mL^−1) on MRSA planktonic cells were also performed, with the incubation time up to 24 hours.

[2] = tested on: S. aureus persister cells; conditions: even at 100×MIC; cited from earlier work
[3] = assay type: in vitro ADME; conditions: for concentration delivered to wound tissues: 5 mg mL^−1 DAP loaded
Description: Investigations were also performed to determine the iontophoretic antibiotic delivery efficiency of the HIC-based biofilm treatment system 100 using high current intensities. These investigations included an ex vivo antibiotic delivery study using the same MRSA biofilm-infected porcine skin wound model as in the previous section. Vancomycin (VAN) was used here as a model drug, since it is the FDA-approved antibiotic and is the clinical gold standard for combating S. aureus infections.
First the VAN delivery efficiency was tested at different current intensities (from 0 mA cm^−2 (passive diffusion) to 75 mA cm^−2) applied by the HIC-based biofilm treatment system 100 for 1 hour. The drug/buffer chamber 114 of the working device 104 was loaded with 1 mg mL^−1 VAN in this study. The anode side was used as the working device 104 because VAN required anodal iontophoresis. The accumulated concentration of VAN in biofilm infected skin wound was measured immediately after iontophoresis using high performance liquid chromatography (HPLC). […] When 75 mA cm^−2 was used, the VAN concentration in wound tissue increased to 4.5±0.52 mg g^−1. The VAN concentration in wound tissue after passive diffusion, 0.5 mA cm^−2, and 19 mA cm^−2 iontophoresis were also measured. However, they could not be distinguished from the background interference of the residual biofilm components, so no quantitative results were obtained (data not shown). Importantly, the VAN concentration delivered by 75 mA cm^−2 iontophoresis for 1 hour exceeded the minimal biofilm eradication concentration (MBEC) of VAN reported for MRSA biofilm, which was 4 mg g^−1. The ability to deliver a lethal antibiotic concentration into biofilm-infected wounds within a short period of time was critical for biofilm treatment as it would minimize the chance for bacteria to develop adaptive tolerance.
The fetal pig skin samples (approximately 30×30 mm) were immersed in 10% (v/v) bleach for 5 minutes after hair removal. Then, skin samples were sterilized in 70% ethanol for 30 minutes. The surface of skin sample was further cleaned by 10% povidone-iodine and 70% isopropanol to prevent contamination. A 6-mm disposable biopsy punch was used to create an excisional wound. Samples were put into sterile 10-cm petri-dishes filled with sterile PBS (6 mL). The wound was then inoculated with 1×10^8 CFU mL^−1 MRSA bacteria solution (20 μL). The bacteria were allowed to grow in a 37° C. Heratherm™ compact microbiological incubator (ThermoFischer Scientific™, Waltham, Mass., USA) for 48 hours to form mature biofilms.
To evaluate the antibiotic delivery efficacy of VAN by high-intensity current, biofilm infected fetal pig skin wound was used. The DAP test setup was same as that of VAN, except no PBS chamber 122 was used. Instead, the inner surface of the skin wound contacted directly to the hydrogel 120 of the counter device 106. To evaluate the effect of electrical current intensity on the drug delivery efficacy, different current intensities from 0 to 75 mA cm^−2 were applied. To evaluate the effect of loading concentration of antibiotics, different concentrations of VAN and DAP from 1 mg mL^−1 to 10 mg mL^−1 were used. Since VAN is […] and DAP is negatively charged under physiological environment, anode HIC-based device was placed facing biofilm for VAN iontophoresis, and cathode HIC-based device was placed facing biofilm for DAP iontophoresis. Samples were collected immediately after different treatments. The concentrations of antibiotics delivered into skin wound samples were measured by high-performance liquid chromatography (HPLC). The permeation coefficient (Pc, cm s^−1) was then calculated (Pc=J/C, where J is antibiotic delivery flux in tissue samples (μg (cm^2s)^−1, C is the loading concentration of antibiotic solution (μg m L^−1)). […]

[4] = tested on: HaCaT cells; assay: Cell toxicity of high concentration of antibiotics, LIVE/DEAD stain; assay type: cell-based, human; conditions: 20 mg mL^−1 DAP, 24 hour incubation
Description: (§1) To evaluate the cell toxicity of the high concentration of antibiotics, HaCaT cells and HDFa cells were used. 2×10^4 HaCat cells and 2×10^3 HDFa cells were seeded in each well of a 96-well plate. After being cultured in an incubator under 37° C. and 5% CO2 for 24 hours, 4.5 mg mL^−1 VAN and 20 mg mL^−1 DAP were added to the culture media, respectively. Both HaCat cells and HDFa cells were treated by VAN for two days, and exposed to DAP for one day, respectively. The cell toxicity of the two cells at the end time points were evaluated by LIVE/DEAD stain and visualized by a confocal laser scanning microscope (CLSM, LSM 710, Zeiss, Germany).

[5] = tested on: HDFa cells; assay: as above; assay type: cell-based, human; conditions: 20 mg mL^−1 DAP, 24 hour incubation
Description: as §1

[6] = assay type: in vitro ADME, porcine; conditions: for distribution in wound tissue (fluorescence): 1 mg mL^−1 FD-4
Description: It was determined that high-intensity iontophoresis using the HIC-based biofilm treatment system 100 was able to enhance the VAN penetration depth in wound tissues. A high penetration depth would allow effective treatment of bacteria in deeper layers of clinical biofilm infections to minimize biofilm reformation. A fluorescently labeled dextran (M.W.=4 kDa, FD-4) was used to visualize drug distribution in wound tissue immediately after iontophoresis in this test. […] All wound tissues were dehydrated by acetone before sectioning to minimize FD-4 mobility during sample processing. When passive diffusion and 0.5 mA cm^−2 were applied, the fluorescence was indiscernible under microscope. […] This penetration depth was higher than the typical thickness of in vivo S. aureus biofilm infections in skin wounds (150 μm above wound surface and 190 μm below wound surface).
FD-4 penetration and distribution in the MRSA biofilm infected skin wound was evaluated by cryo-section and fluorescent microscopy. Briefly, samples were collected by 8-mm disposable biopsy punch and dehydrated in acetone for 10 to 30 minutes. After being air dried for another 10 to 30 minutes, the samples were embedded in tissue freezing medium (OCT) and sectioned to obtain 10 μm section under −20 ° C. Section samples were then observed under a fluorescent microscope (DMI 6000 B, Leica, Bannockburn, Ill., USA).

[7] = tested on: S. gordonii biofilms; conditions: cited from earlier work

CCCCCCCCCC(=O)N[C@@H](Cc1c[nH]c2ccccc12)C(=O)N[C@H](CC(N)=O)C(=O)N[C@@H](CC(=O)O)C(=O)N[C@@H]1C(=O)NCC(=O)N[C@@H](CCCN)C(=O)N[C@@H](CC(=O)O)C(=O)N[C@H](C)C(=O)N[C@@H](CC(=O)O)C(=O)NCC(=O)N[C@H](CO)C(=O)N[C@@H]([C@H](C)CC(=O)O)C(=O)N[C@@H](CC(=O)c2ccccc2N)C(=O)O[C@@H]1C [DAP, Daptomycin]
bacterial count after incubation (from 10^8 CFU g^−1) [1]: 0 CFU g^−1
killing of S. aureus persister cells [2]: not capable of killing
Pc at 75 mA cm^−2 higher than 0.5 mA cm^−2 iontophoresis ([3]; 5 mg mL^−1 DAP): 10.1 times
Pc at 75 mA cm^−2 higher than passive diffusion ([3]; 5 mg mL^−1 DAP): 12.0 times
permeation coefficient (Pc) ([3]; 0.5 mA cm^−2 iontophoresis, 5 mg mL^−1 DAP): 15.7±3.37 ×10^−6 cm s^−1
concentration delivered into wound tissue ([3]; 75 mA cm^−2, 1 hour, 1 mg mL^−1 DAP loaded): 3.3 ± 1.49 mg/g
concentration delivered to wound tissues ([3]; 75 mA cm^−2, 1 hour): 19.9 ± 1.45 mg/g
concentration delivered into wound tissue ([3]; 75 mA cm^−2, 1 hour, 10 mg mL^−1 DAP loaded): 32.8 ± 5.68 mg/g
permeation coefficient (Pc) ([3]; 75 mA cm^−2 iontophoresis, 5 mg mL^−1 DAP): 158.3±11.18 ×10^−6 cm s^−1
permeation coefficient (Pc) ([3]; passive diffusion, 5 mg mL^−1 DAP): 13.2±3.15 ×10^−6 cm s^−1
concentration delivered to wound tissues ([3]; passive diffusion, 1 hour): 1.7 ± 0.59 mg/g
viability of skin cells [4]: did not have significant impact
viability of skin cells [5]: did not have significant impact

Fluorescein isothiocyanate (FITC) labeled dextran-4 kDa [FD-4]
distribution in wound tissue (fluorescence) ([6]; 0.5 mA cm^−2, 1 hour): indiscernible
distribution in wound tissue (fluorescence) ([6]; 19 mA cm^−2, 1 hour): fluorescence could only be seen near the upper boundary of the wound tissue
penetration depth (entire tissue thickness, after dehydration) ([6]; 75 mA cm^−2, 1 hour): 182.4±12.62 μm
penetration depth (entire tissue thickness, before dehydration) ([6]; 75 mA cm^−2, 1 hour): 955.7±192.56 μm
distribution in wound tissue (fluorescence) ([6]; 75 mA cm^−2, 1 hour): penetrated the entire thickness of the tissue sample
distribution in wound tissue (fluorescence) ([6]; passive diffusion, 1 hour): indiscernible

gentamicin
biofilm bacterial count reduction ([7]; 0.4 mA cm^−2 with 2 μg mL^−1 gentamicin, 24 hours): 4.3 log10 scales
bacteria count reduction ([7]; antibiotic alone): 0.8 log10 scale

— US20240050735A1, “SYSTEMS AND METHODS FOR TREATING AND INHIBITING WOUND INFECTIONS” (priority 2020, published 2024)
